Here are results for five compounds from US20230143604A1, “QW DOSING OF GIP RECEPTOR AGONIST PEPTIDE COMPOUNDS AND USES THEREOF” (TAKEDA PHARMACEUTICAL COMPANY LIMITED, priority 2020, published 2023).

What is called solubility is the concentration that dissolves in the medium under given conditions. Read a high solubility as much dissolved substance.

The test system of one data set is C57BL/6J mice. The data set can be described thus: Oral glucose tolerance test (OGTT). Format: in vivo. To be noted: 3 nmol/kg s.c., 24 hours before glucose loading. On the procedure:
An oral glucose tolerance test (OGTT) was carried out using C57BL/6J mice with a 50% dextrose solution dosed at 5 ml/kg. Testing concentrations of 0.1 nmol/kg, 0.3 nmmol/kg, 3 nmol/kg or 10 nmol/kg were selected depending on the peptide. Each peptide or a vehicle (control group) was subcutaneously administered 24 hours (unless shown otherwise) before glucose loading and the blood glucose was measured at 0, 15, 30, and 60 minutes after glucose dosing.
% inhibition=(1−(AUC cpd−AUC naïve/AUC veh−AUC naïve))×100.

Another data set is described as follows: physchem. Put shortly: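 Solubility at pH 7.4 determined by stepwise addition of 200 mM phosphate buffer in 100 μL increments to 3 mg peptide, mixing briefly each time, until no insoluble material remained, then measured by liquid chromatography.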

Turning to `CC[C@H](C)[C@H](NC(=O)[C@H](CO)NC(=O)[C@H](Cc1ccc(O)cc1)NC(=O)[C@H](CC(=O)O)NC(=O)[C@H](CO)NC(=O)[C@@H](NC(=O)[C@H](Cc1ccccc1)NC(=O)[C@@H](NC(=O)CNC(=O)[C@H](CCC(=O)O)NC(=O)C(C)(C)NC(=O)[C@@H](N)Cc1ccc(O)cc1)[C@@H](C)O)[C@@H](C)CC)C(=O)N[C@@H](C)C(=O)N[C@@H](CCCCNC(=O)CNC(=O)CNC(=O)CNC(=O)CNC(=O)CNC(=O)CCCCCCCCCCCCCCCCC(=O)O)C(=O)N[C@@H](CC(=O)O)C(=O)N[C@@H](CCCNC(=N)N)C(=O)NC(C)(C)C(=O)N[C@@H](C)C(=O)N[C@@H](CCC(N)=O)C(=O)NC(C)(C)C(=O)N[C@@H](CC(=O)O)C(=O)N[C@@H](Cc1ccccc1)C(=O)N[C@H](C(=O)N[C@@H](CCC(=O)O)C(=O)N[C@@H](Cc1c[nH]c2ccccc12)C(=O)N[C@@H](CC(C)C)C(=O)N[C@@H](CC(C)C)C(=O)N[C@@H](C)C(=O)N[C@@H](CCC(N)=O)C(=O)N[C@@H](CCCNC(=N)N)C(=O)NCC(=O)O)C(C)C` [Compound 144], the “Oral Glucose Tolerance Test Percent decrease in blood glucose AUC (%) over 60 mins” value in the data set with C57BL/6J mice is 35% (3 nmol/kg). Moreover, the solubility in “physchem” (pH 7.4) was ≥ 15 mg/mL; in “physchem” (pH 7.4, aqueous buffer) it was ≥ 30 mg/mL.

For the compound `CC[C@H](C)[C@H](NC(=O)[C@H](CO)NC(=O)[C@H](Cc1ccc(O)cc1)NC(=O)[C@H](CC(=O)O)NC(=O)[C@H](CO)NC(=O)[C@@H](NC(=O)[C@H](Cc1ccccc1)NC(=O)[C@@H](NC(=O)CNC(=O)[C@H](CCC(=O)O)NC(=O)C(C)(C)NC(=O)[C@H](Cc1ccc(O)cc1)NC)[C@@H](C)O)[C@@H](C)CC)C(=O)N[C@@H](C)C(=O)N[C@@H](CCCCNC(=O)CNC(=O)CNC(=O)CNC(=O)CNC(=O)CNC(=O)CCCCCCCCCCCCCCCCC(=O)O)C(=O)N[C@@H](CC(=O)O)C(=O)N[C@@H](CCCNC(=N)N)C(=O)NC(C)(C)C(=O)N[C@@H](C)C(=O)N[C@@H](CCC(N)=O)C(=O)NC(C)(C)C(=O)N[C@@H](CC(=O)O)C(=O)N[C@@H](Cc1ccccc1)C(=O)N[C@H](C(=O)N[C@@H](CC(N)=O)C(=O)N[C@@H](Cc1c[nH]c2ccccc12)C(=O)N[C@@H](CC(C)C)C(=O)N[C@@H](CC(C)C)C(=O)N[C@@H](C)C(=O)N[C@@H](CCC(N)=O)C(=O)N[C@@H](CCCNC(=N)N)C(=O)N1CCC[C@H]1C(=O)N[C@@H](CO)C(=O)N[C@@H](CO)C(=O)NCC(=O)O)C(C)C` [Compound 70], in the data set on C57BL/6J mice, the “Oral Glucose Tolerance Test Percent decrease in blood glucose AUC (%) over 60 mins” value is listed as 56% (3 nmol/kg). Moreover, the solubility in the data set “physchem” (pH 7.4) was ≥ 15 mg/mL; in the data set “physchem” (pH 7.4, aqueous buffer), ≥ 30 mg/mL.

Turning to `CC[C@H](C)[C@H](NC(=O)[C@H](CO)NC(=O)[C@H](Cc1ccc(O)cc1)NC(=O)[C@H](CC(=O)O)NC(=O)[C@H](CO)NC(=O)[C@@H](NC(=O)[C@H](Cc1ccccc1)NC(=O)[C@@H](NC(=O)CNC(=O)[C@H](CCC(=O)O)NC(=O)C(C)(C)NC(=O)[C@H](Cc1ccc(O)cc1)NC)[C@@H](C)O)[C@@H](C)CC)C(=O)N[C@@H](C)C(=O)N[C@@H](CCCCNC(=O)CNC(=O)CNC(=O)CNC(=O)CNC(=O)CNC(=O)CCCCCCCCCCCCCCCCCCC(=O)O)C(=O)N[C@@H](CC(=O)O)C(=O)N[C@@H](CCCNC(=N)N)C(=O)NC(C)(C)C(=O)N[C@@H](C)C(=O)N[C@@H](CCC(N)=O)C(=O)NC(C)(C)C(=O)N[C@@H](CC(=O)O)C(=O)N[C@@H](Cc1ccccc1)C(=O)N[C@H](C(=O)N[C@@H](CC(N)=O)C(=O)N[C@@H](Cc1c[nH]c2ccccc12)C(=O)N[C@@H](CC(C)C)C(=O)N[C@@H](CC(C)C)C(=O)N[C@@H](C)C(=O)N[C@@H](CCC(N)=O)C(=O)N[C@@H](CO)C(=O)N1CCC[C@H]1C(=O)NCC(=O)O)C(C)C` [Compound 111], in the data set on C57BL/6J mice, the “Oral Glucose Tolerance Test Percent decrease in blood glucose AUC (%) over 60 mins” value is on record as 44% (3 nmol/kg). Besides, the solubility was ≥ 15 mg/mL in “physchem” (pH 7.4) and ≥ 30 mg/mL in “physchem” (pH 7.4, aqueous buffer).

As to `CC[C@H](C)[C@H](NC(=O)[C@H](CO)NC(=O)[C@H](Cc1ccc(O)cc1)NC(=O)[C@H](CC(=O)O)NC(=O)[C@H](CO)NC(=O)[C@@H](NC(=O)[C@H](Cc1ccccc1)NC(=O)[C@@H](NC(=O)CNC(=O)[C@H](CCC(=O)O)NC(=O)C(C)(C)NC(=O)[C@H](Cc1ccc(O)cc1)NC)[C@@H](C)O)[C@@H](C)CC)C(=O)N[C@@H](C)C(=O)N[C@@H](CC(C)C)C(=O)N[C@@H](CC(=O)O)C(=O)N[C@@H](CCCNC(=N)N)C(=O)N[C@@H](CCCCNC(=O)CNC(=O)CNC(=O)CNC(=O)CNC(=O)CNC(=O)CCCCCCCCCCCCCCCCC(=O)O)C(=O)N[C@@H](C)C(=O)N[C@@H](CCC(N)=O)C(=O)NC(C)(C)C(=O)N[C@@H](CC(=O)O)C(=O)N[C@@H](Cc1ccccc1)C(=O)N[C@H](C(=O)N[C@@H](CC(N)=O)C(=O)N[C@@H](Cc1c[nH]c2ccccc12)C(=O)N[C@@H](CC(C)C)C(=O)N[C@@H](CC(C)C)C(=O)N[C@@H](C)C(=O)N[C@@H](CCC(N)=O)C(=O)N[C@@H](CCCNC(=N)N)C(=O)N1CCC[C@H]1C(=O)N[C@@H](CO)C(=O)N[C@@H](CO)C(=O)NCC(=O)N[C@@H](C)C(=O)N1CCC[C@H]1C(=O)N1CCC[C@H]1C(=O)N1CCC[C@H]1C(=O)N[C@@H](CO)C(=O)O)C(C)C` [Compound 51], in the data set on C57BL/6J mice, the “Oral Glucose Tolerance Test Percent decrease in blood glucose AUC (%) over 60 mins” value is reported as 50% (3 nmol/kg). Also, the solubility was ≥ 30 mg/mL in “physchem” (pH 7.4, aqueous buffer, pH 7.4 Phosphate Buffer - Solubility, 200 mM Phosphate buffer pH 7.4) and ≥ 15 mg/mL in the data set “physchem” (pH 7.4, solubility in phosphate buffer at pH 7.4, 200 mM phosphate buffer pH 7.4).

With `CC[C@H](C)[C@H](NC(=O)[C@H](CO)NC(=O)[C@H](Cc1ccc(O)cc1)NC(=O)[C@H](CC(=O)O)NC(=O)[C@H](CO)NC(=O)[C@@H](NC(=O)[C@H](Cc1ccccc1)NC(=O)[C@@H](NC(=O)CNC(=O)[C@H](CCC(=O)O)NC(=O)C(C)(C)NC(=O)[C@H](Cc1ccc(O)cc1)NC)[C@@H](C)O)[C@@H](C)CC)C(=O)N[C@@H](C)C(=O)N[C@@H](CCCCNC(=O)CNC(=O)CNC(=O)CNC(=O)CNC(=O)CNC(=O)CCCCCCCCCCCCCCCCC(=O)O)C(=O)N[C@@H](CC(=O)O)C(=O)N[C@@H](CCCNC(=N)N)C(=O)NC(C)(C)C(=O)N[C@@H](C)C(=O)N[C@@H](CCC(N)=O)C(=O)NC(C)(C)C(=O)N[C@@H](CC(=O)O)C(=O)N[C@@H](Cc1ccccc1)C(=O)N[C@H](C(=O)N[C@@H](CC(N)=O)C(=O)N[C@@H](Cc1c[nH]c2ccccc12)C(=O)N[C@@H](CC(C)C)C(=O)N[C@@H](CC(C)C)C(=O)N[C@@H](C)C(=O)N[C@@H](CCC(N)=O)C(=O)N[C@@H](CCCNC(=N)N)C(=O)NCC(=O)O)C(C)C` [Compound 63], the “Oral Glucose Tolerance Test Percent decrease in blood glucose AUC (%) over 60 mins” value with C57BL/6J mice is on record as 41% (3 nmol/kg). Moreover, the solubility in the data set “physchem” (pH 7.4) is ≥ 15 mg/mL.
